Legend:
[1] = test system: human acute myelocytic leukemia MV4;11 cell subcutaneous xenograft tumor; assay: In vivo antitumor activity in MV4;11 cell subcutaneous xenograft tumor model; parameters: species or system NOD-SCID mice; settings: MV4;11 xenograft, p.o.
Protocol: Cell culture: IMDM culture medium containing 10% fetal bovine serum (FBS), 37° C., 5% CO2.
(§1) NOD-SCID mice, female, 6-8 weeks(18-22 g), each mouse was subcutaneously inoculated with 0.1 mL (1×10^8) MV4;11 cells on the right back of each mouse. When the average tumor volume reached 150 mm^3, drug administration was started. The tumor volume was measured twice a week, and the volume was calculated in cubic millimeters. When the average tumor volume in the vehicle group reached more than 800 mm^3, the administration was terminated to compare the difference in the average tumor volume between the compound groups and the vehicle group. The antitumor efficacy of the compounds was evaluated by TGI (%). TGI (%) reflected the tumor growth inhibition rate.

hERG channel = hERG channel (Homo sapiens (Human), UniProt Q12809); assay: In vitro hERG inhibitory activity, whole-cell patch-clamp on CHO-K1 cell line stably expressing the hERG channel
Chain of hERG channel (Q12809 whole entry): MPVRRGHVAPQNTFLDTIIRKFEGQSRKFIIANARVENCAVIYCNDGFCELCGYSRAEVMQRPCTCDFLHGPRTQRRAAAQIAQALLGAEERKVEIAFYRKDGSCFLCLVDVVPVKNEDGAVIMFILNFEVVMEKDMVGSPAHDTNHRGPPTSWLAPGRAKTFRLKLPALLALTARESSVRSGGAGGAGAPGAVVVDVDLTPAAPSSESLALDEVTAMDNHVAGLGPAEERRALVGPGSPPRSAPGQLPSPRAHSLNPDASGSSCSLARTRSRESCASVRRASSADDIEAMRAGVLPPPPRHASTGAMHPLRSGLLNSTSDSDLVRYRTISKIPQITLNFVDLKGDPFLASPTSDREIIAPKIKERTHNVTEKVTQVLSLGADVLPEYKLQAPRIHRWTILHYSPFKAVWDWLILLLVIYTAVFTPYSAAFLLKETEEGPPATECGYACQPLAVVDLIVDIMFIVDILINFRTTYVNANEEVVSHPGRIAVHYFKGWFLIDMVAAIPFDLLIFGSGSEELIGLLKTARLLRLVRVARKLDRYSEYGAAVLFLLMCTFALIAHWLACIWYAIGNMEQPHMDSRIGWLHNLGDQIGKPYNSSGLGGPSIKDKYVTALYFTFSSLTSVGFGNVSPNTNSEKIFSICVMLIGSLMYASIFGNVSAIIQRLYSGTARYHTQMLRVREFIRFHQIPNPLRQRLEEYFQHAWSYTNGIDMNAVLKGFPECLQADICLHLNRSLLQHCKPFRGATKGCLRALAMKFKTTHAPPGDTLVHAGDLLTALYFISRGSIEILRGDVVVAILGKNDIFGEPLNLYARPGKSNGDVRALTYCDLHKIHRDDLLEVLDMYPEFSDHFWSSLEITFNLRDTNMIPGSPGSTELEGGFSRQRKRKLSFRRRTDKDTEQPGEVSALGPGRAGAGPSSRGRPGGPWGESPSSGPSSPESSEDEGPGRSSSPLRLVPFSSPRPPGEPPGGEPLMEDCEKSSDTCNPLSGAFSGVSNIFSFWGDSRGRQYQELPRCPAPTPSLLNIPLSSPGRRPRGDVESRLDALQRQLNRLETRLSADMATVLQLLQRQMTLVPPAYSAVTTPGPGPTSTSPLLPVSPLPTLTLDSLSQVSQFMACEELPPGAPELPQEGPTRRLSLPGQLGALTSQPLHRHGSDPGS
Excerpt: Rapid delayed rectifier current (IKr) was mainly mediated by the hERG ion channel and involved in human cardiomyocyte repolarization. Inhibition of IKr was the leading cause of the clinical QT interval prolongation syndrome, even acute cardiac dysrhythmia, and even sudden death. By utilizing a whole-cell patch-clamp technology, the blocking effect of a compound on the hERG channel was detected on a CHO-K1 cell line stably expressing the hERG channel, and the half inhibition concentration IC50 of the compound was determined. It was used as a part of the comprehensive cardiac safety assessment, and it was initially evaluated in the safety in vitro screen for cardiotoxicity.
This assay included the following aspects: • The hERG current was recorded on the CHO-K1 cell line stably expressing the hERG channel by utilizing the manual patch-clamp technology; • The inhibition rate at each concentration was calculated according to the hERG tail current; • The measurement was performed at 5 concentrations for each compound to calculate the IC50 value; • 3 cells were tested at each concentration; • One positive control drug was provided.
The hERG current was recorded by utilizing a whole-cell patch-clamp technology. The cell suspension was added to a dish, and the dish was placed on the object stage of an upright microscope. After adhesion of the cells, perfusion was performed with an extracellular fluid at a flow rate of […]. A glass microelectrode was pulled with a microelectrode puller via a two-step process and the pipette rip resistance was between 2-5 MΩ. After the whole-cell record was set up, the clamp potential was held at −80 mV. The cells were depolarized to +60 mV by applying a voltage stimulus and then repolarized to −50 mV to elicit the hERG tail current. All recordation was conducted after the current became stable. The extracellular perfusion administration was started from the lowest concentration, staying for 5-10 min at each concentration until the current was stable, and then conducted with the next concentration.

MV4;11 cells = assay: In vitro MV4;11 cell proliferation inhibition (MTT method); assay type: cell-based; settings: Homo sapiens
Excerpt: The in vitro inhibitory effect of the synthesized compounds on cell proliferation was investigated.
The trade name of MTT was thiazole blue, which was a tetrazolium salt of a dye that could accept hydrogen atoms. […] Dimethyl sulfoxide could dissolve blue-purple complexes in cells, and its light absorption value could be measured at 490-550 nm wavelength with an enzyme-linked immunosorbent detector, which could indirectly reflect the number of cells. Within a certain range of the cell number, the amount of MTT crystals formed was proportional to the number of cells. The drug to be tested was successively diluted to different concentrations and added to a 96-well plate. The OD value was determined after the drug acted for a certain time. The size of the OD value could reflect the number of living cells, and its IC50 value was calculated with SPSS19.0.
Suspension of cells: Cells were […] by centrifugation and counted. A certain density of cell suspension was formulated with a complete culture medium, blown evenly, inoculated on a 96-well plate, 100 μL per well, and then cultured in a CO2 incubator.
An appropriate amount of the drug was added to a calculated amount of DMSO and dissolved. The resulting mixture was dispensed and stored at −20° C. The formulation concentration was 10 mM.
The stock solution of the compound having a concentration of 10 mM was diluted into different concentrations (8 concentrations) of solutions of the compound in DMSO (3-fold dilution, 20×final concentration). Each concentration of solutions (10 μL) of the compound in DMSO was respectively diluted with cell culture media (90 μL) to formulate working solutions (2×final concentration). Each concentration of working solutions (100 μL) of the compound was added to the 96-well plate inoculated with cells (1×final concentration, the highest final concentration is 1000 nM). The resulting plate continued to be cultured in a CO2 incubator.
The 96-well plate was taken out, and the density of cells was observed under a microscope. The test was performed with the MTT method.
MTT method: 20 μL of MTT was added to each well; the plate was cultured for about 4 hours in the incubator; the liquid in the well was discarded; 150 μL of DMSO was added into each well; the plate was placed in a shaker and shaken for 5-10 minutes, and the test was performed with a microplate reader at a wavelength of 550 nm. 7. Data analysis: IC50 value of the drug was calculated with SPSS19.0 statistical software.

[2] = test system: human acute promyelocytic leukemia HL-60 cell subcutaneous xenograft tumor; assay: In vivo antitumor activity in HL-60 cell subcutaneous xenograft tumor model; parameters: species or system Nu/Nu mice; settings: HL-60 xenograft, qd, p.o., 5 mg/Kg, 9 days
Protocol: as §1, with “Cell culture: IMDM culture medium containing 20% fetal bovine serum (FBS), 37° C., 5% CO2; Nu/Nu” for “NOD-SCID”, “weeks (18-22” for “weeks(18-22”, “of HL-60 cell suspension (containing about 1×10^7 cells) in the axillary region of” for “(1×10^8) MV4;11 cells on”, “forelimb.” for “back of each mouse.”, “2-3 times per” for “twice a”, “group” for “groups”

SMILES	TGI(%) ([1]; q2d, 20 mg/Kg, 9 days)	IC50 (hERG channel)	IC50 (MV4;11 cells)	TGI(%) ([1]; qd, 5 mg/Kg, 9 days)	TGI(%) [2]	TGI(%) ([1]; qd, 5 mg/Kg, 16 days)	TGI(%) ([1]; qd, 5 mg/Kg, 7 days)
COc1cc(F)ccc1-c1ccnc(NC(=O)[C@H]2CCC[C@@H](NC(C)=O)C2)c1	51.5%	–	–	–	–	–	–
COc1cc(F)ccc1-c1cc(NC(=O)[C@H]2CCC[C@@H](NC(C)=O)C2)ncc1F [Compound 5]	98.5%	> 30000 nM	37 nM	–	–	–	–
COc1cc(F)ccc1-c1cc(NC(=O)[C@H]2CCC[C@@H](NC(=O)C3(C#N)CC3)C2)ncc1F [Compound 33]	–	> 30000 nM	17 nM	56.9%	–	–	–
COc1cc(F)ccc1-c1cc(NC(=O)[C@H]2CCC[C@@H](NC(=O)CO)C2)ncc1F [Compound 45]	–	> 30000 nM	34 nM	–	58.0%	62.9%	–
COc1cc(F)c(F)cc1-c1cc(NC(=O)[C@H]2CCC[C@@H](NC(=O)C3(C#N)CC3)C2)ncc1F [Compound 67]	–	–	67 nM	67.8%	67.8%	–	–
COc1cc(F)c(F)cc1-c1cc(NC(=O)[C@H]2CCC[C@@H](NC(=O)CO)C2)ncc1F [Compound 68]	–	> 30000 nM	50 nM	–	90.2%	–	78.1%

— patent US12570607B2, “Compound as cyclin-dependent kinase 9 inhibitor and use thereof” (CSPC Zhongqi Pharmaceutical Technology (Shijiazhuang) Co., …, priority 2019, dated 2026)
